This note sets out measurements from the OligoGym collection.

In this data set the target is SNHG14. To be noted: ASO.
Where [1] appears, read: Mouse Primary Neuronal Cell, 0.005 µM.

After the bases stand the sugars from the 5' end (letter, count) and the backbone: PS all phosphorothioate, else s phosphorothioate and o phosphodiester by linkage. Methylation of C is not given here. l = locked nucleic acid (LNA); d = 2'-deoxy (DNA)

For the sequence “CCATTTATTTCCATTTATT (sugars lddlllddddddldddlll, PS)”, the target mRNA inhibition (Human Neuronal Cell, 7.5 µM) turned out to be 54%.
The same measure, in the same setting: to “CAACATTATTAACCACCTT (sugars ldldddddddddddldlll, PS)” belongs 52%.
Take ATTCAGTTACCAACTA (sugars l3 d10 l3, PS): the target mRNA inhibition (Human Neuronal Cell, 0.2 µM) stood at 39% and the target mRNA inhibition (Human Neuronal Cell, 1 µM) amounted to 38%.
In the case of “AGATCATTCTCAACAATTA (sugars ldldlldddddddddddll, PS)”, the target mRNA inhibition (Human Neuronal Cell, 7.5 µM) was 57%.
Regarding “TTTATCAATATCTTCTCA (sugars lddddlddddddldllll, PS)”, the target mRNA inhibition (Human Neuronal Cell, 7.5 µM) was 61%.
On the same count and under the same terms, to “CAACATTATTAACCACCTT (sugars l3 d11 l2 d1 l2, PS)” belongs 51%; to “CTGTATACACCATCCCA (sugars l2 d2 l1 d10 l2, PS)”, 60%.
Same read-out and setting: to “GCAACATTATTAACCACCT (sugars ldddddddddddlldldll, PS)” belongs 39%.
On to GACTACATTCTCAATA (sugars l3 d10 l3, PS), for which the target mRNA inhibition was found to be 30% (Human Neuronal Cell, 0.2 µM) and 50% (Human Neuronal Cell, 1 µM).
Consider “TTTTTATACCTTTCTTTAAC (sugars ldlddldddddddlldddll, PS)”, for which the target mRNA inhibition (Human Neuronal Cell, 7.5 µM) is 23%.
Regarding TTATTCTGACACACTT (sugars l3 d10 l3, PS), the target mRNA inhibition is, setting by setting: (Human Neuronal Cell, 0.2 µM) 35%; (Human Neuronal Cell, 1 µM) 35%.
As for “AGTTCTACTATACTTTCC (sugars l1 d13 l1 d1 l2, PS)”, the target mRNA inhibition (Human Neuronal Cell, 7.5 µM) came out at 47%.
On the same count and under the same terms, to “ATCTCATGACCACCTAA (sugars ldlddddddddddldll, PS)” belongs 61%.
On to TATGACTCCAATAATC (sugars l3 d10 l3, PS), for which the target mRNA inhibition is, setting by setting: (Human Neuronal Cell, 0.2 µM) 30%; (Human Neuronal Cell, 1 µM) 44%.
As to “TCCATTTATTTCCATTTATT (sugars lldldldddddddddddlll, PS)”, the target mRNA inhibition (Human Neuronal Cell, 7.5 µM) is 55%.
The same measure, in the same setting: to “GATCATTCTCAACAATT (sugars l5 d6 l1 d1 l4, PS)” belongs 0%.
Turning to ACATGTCCCTTTATAT (sugars l3 d10 l3, PS), the target mRNA inhibition is, setting by setting: (Human Neuronal Cell, 0.2 µM) 1%; (Human Neuronal Cell, 1 µM) -13%; (Human Neuronal Cell, 5 µM) 6%; under setting [1], 88.2%.
Take “GCATTCAACCCTAATCA (sugars l3 d12 l2, PS)”: the target mRNA inhibition reads like this: (Human Neuronal Cell, 0.2 µM) 39%; (Human Neuronal Cell, 1 µM) 50%.
As to “CTTTTAACCAGAGTGGCA (sugars l1 d14 l3, PS)”, the target mRNA inhibition (Human Neuronal Cell, 7.5 µM) came out at 61%.
CAGATAACTCTAAACC (sugars l4 d10 l2, PS): the target mRNA inhibition is, setting by setting: (Human Neuronal Cell, 0.2 µM) 22%; (Human Neuronal Cell, 1 µM) 16%.
The like results for “TTTATCTCATGACCACC (sugars l2 d11 l4, PS)” were, in that order, 54% and 56%.
As to “TTTATCAATATCTTCTCACT (sugars ldddddldddddddlddlll, PS)”, under “Human Neuronal Cell, 7.5 µM”, the target mRNA inhibition is 45%.
Consider “CATTTACATTATTATTTAAC (sugars l2 d14 l4, PS)”, for which the target mRNA inhibition is, setting by setting: (Human Neuronal Cell, 0.2 µM) 1%; (Human Neuronal Cell, 1 µM) -3%.
“TTTATCAATATCTTCTCA (sugars lllddlddddddldldll, PS)”: for the setting “Human Neuronal Cell, 7.5 µM”, the target mRNA inhibition came out at 37%.
On the same count and under the same terms, to “ATATTGATTCAATTCCC (sugars ldldldddddddldlll, PS)” belongs 70%; to “TTATAGCCATTCTATCT (sugars ldlddddddddldllll, PS)”, 49%.
With TTAAATCCAGCATTCA (sugars l3 d10 l3, PS), the target mRNA inhibition reads like this: (Human Neuronal Cell, 0.2 µM) 54%; (Human Neuronal Cell, 1 µM) 66%.
For the sequence “GCTTTTAACCAGAGTGGCA (sugars l1 d16 l2, PS)”, the target mRNA inhibition (Human Neuronal Cell, 7.5 µM) stood at 46%.
Consider ACATCTCATACTTGCT (sugars l2 d10 l4, PS), for which the target mRNA inhibition (Human Neuronal Cell, 0.2 µM) was -10%; the target mRNA inhibition (Human Neuronal Cell, 1 µM) is -5%; the target mRNA inhibition (Human Neuronal Cell, 5 µM) came to 8%; the target mRNA inhibition under setting [1] worked out at 96%.
As to “CTGTATACACCATCCCA (sugars lddddddddddldldll, PS)”, under “Human Neuronal Cell, 7.5 µM”, the target mRNA inhibition is 49%.
On the same count and under the same terms, to “ATTTACACTTAATTATACTT (sugars ldddldldddddddllllll, PS)” belongs 46%.
The same measure, in the same setting: to “AGTTCTACTATACTTTCC (sugars l1 d2 l1 d12 l2, PS)” belongs 43%.
For the sequence “CACCAGTATTTCTTCTT (sugars l4 d11 l2, PS)”, the target mRNA inhibition worked out at 31% (Human Neuronal Cell, 0.2 µM) and 27% (Human Neuronal Cell, 1 µM).
The like results for “TTATTCTTACCGTCTTT (sugars l2 d11 l4, PS)” were, in that order, 61% and 65%.
In the case of “TTGATTCAATTCCCTTA (sugars l2 d10 l1 d2 l2, PS)”, the target mRNA inhibition (Human Neuronal Cell, 7.5 µM) stood at 69%.
As for TTCCATGCAAACTTTA (sugars l4 d10 l2, PS), the target mRNA inhibition is, setting by setting: (Human Neuronal Cell, 0.2 µM) 49%; (Human Neuronal Cell, 1 µM) 64%.
For the sequence “TTATAGCCATTCTATCT (sugars l3 d9 l1 d2 l2, PS)”, the target mRNA inhibition (Human Neuronal Cell, 7.5 µM) is 52%.
Take “TTATACCTTTCTTTAACC (sugars l4 d12 l2, PS)”: the target mRNA inhibition runs as follows: (Human Neuronal Cell, 0.2 µM) 38%; (Human Neuronal Cell, 1 µM) 57%.
On to “TATTGATTCAATTCCCT (sugars lldddddddddldldll, PS)”, for which the target mRNA inhibition (Human Neuronal Cell, 7.5 µM) was found to be 60%.
In the case of “AACCAATTATACTTACA (sugars l4 d11 l2, PS)”, the target mRNA inhibition reads like this: (Human Neuronal Cell, 0.2 µM) 40%; (Human Neuronal Cell, 1 µM) 51%.
For the sequence “GTTTCCATCTACTATTAAT (sugars ldldddddddddddldlll, PS)”, the target mRNA inhibition (Human Neuronal Cell, 7.5 µM) amounted to 44%.
Still for that read-out and setting: to TTTTAACCAGAGTGGC (sugars l1 d11 l4, PS) belongs 53%; to “ACTGTTTATACCCTTTCC (sugars l1 d3 l1 d11 l2, PS)”, 49%; to “CAACATTATTAACCACCTT (sugars lldllddddddddddldll, PS)”, 53%.
Still for that read-out and setting: to “AGCTTTTAACCAGAGTGGC (sugars l1 d16 l2, PS)” belongs 56%; to “CTGTATACACCATCCCA (sugars lddldddddddldddll, PS)”, 55%; to “CAACATTATTAACCACCTT (sugars ldlldddddddddddldll, PS)”, 58%.
As for TTTATGTTTACTTCAT (sugars l3 d10 l3, PS), the target mRNA inhibition reads like this: (Human Neuronal Cell, 0.2 µM) 33%; (Human Neuronal Cell, 1 µM) 47%.
The like results for “TTCCTTTAATGCTTCTA (sugars l4 d11 l2, PS)” were, in that order, 55% and 65%.
Take “TCCATTTATTTCCATTTAT (sugars l2 d11 l2 d2 l2, PS)”: the target mRNA inhibition (Human Neuronal Cell, 7.5 µM) was 53%.
In the case of TACATCTCATACTTGC (sugars l2 d12 l2, PS), the target mRNA inhibition by setting is: (Human Neuronal Cell, 0.2 µM) 0%; (Human Neuronal Cell, 1 µM) -10%; (Human Neuronal Cell, 5 µM) 8%; under setting [1], 80.8%.
The like results for ACATCTCATACTTGCT (sugars l2 d12 l2, PS) were, in that order, -13%, -7%, 4% and 93.9%.
Consider “TATACCTTTCTTTAACCCTT (sugars l2 d3 l1 d12 l2, PS)”, for which, where the note is “Human Neuronal Cell, 7.5 µM”, the target mRNA inhibition came to 43%.
As for CACATCTTGTATACAA (sugars l3 d10 l3, PS), the target mRNA inhibition came out at 52% (Human Neuronal Cell, 0.2 µM) and 61% (Human Neuronal Cell, 1 µM).
In the case of “ATATTGATTCAATTCCC (sugars ldlddddddddlddlll, PS)”, the target mRNA inhibition (Human Neuronal Cell, 7.5 µM) turned out to be 67%.
The same measure, in the same setting: to “ATTTACACTTAATTATACTT (sugars llddlldddddddlllddll, PS)” belongs 36%; to “TTACACTTAATTATACTTCC (sugars l2 d4 l1 d11 l2, PS)”, 41%.
For the sequence ATCTCAACTACCATTT (sugars l4 d10 l2, PS), the target mRNA inhibition is, setting by setting: (Human Neuronal Cell, 0.2 µM) 67%; (Human Neuronal Cell, 1 µM) 67%.
Take “TTCTACTATACTTTCCTCT (sugars l1 d13 l1 d2 l2, PS)”: under “Human Neuronal Cell, 7.5 µM”, the target mRNA inhibition turned out to be 47%.
In the case of “TATTGATTCAATTCCCT (sugars l2 d11 l4, PS)”, the target mRNA inhibition by setting is: (Human Neuronal Cell, 0.2 µM) 58%; (Human Neuronal Cell, 1 µM) 71%.
For “TTCTGTATACACCATCC (sugars l3 d1 l1 d10 l2, PS)”, under “Human Neuronal Cell, 7.5 µM”, the target mRNA inhibition turned out to be 54%.
Same read-out and setting: to “TTTTTATACCTTTCTTTAAC (sugars lddldddddddddldlldll, PS)” belongs 61%; to “CTTTTAACCAGAGTGGC (sugars l4 d11 l2, PS)”, 62%; to “AGTTCTACTATACTTTC (sugars l3 d8 l2 d2 l2, PS)”, 12%.
With “TTTTTTCTTACTATCTTCAA (sugars ldldldldddddddldddll, PS)”, the target mRNA inhibition (Human Neuronal Cell, 7.5 µM) amounted to 57%.
Same read-out and setting: to “TTATAGCCATTCTATCT (sugars l3 d12 l2, PS)” belongs 59%; to “ATCTTTCCATTTATTTCCA (sugars lddddldddddddddldll, PS)”, 31%.
On the same count and under the same terms, to “CCATTTATTTCCATTTATTT (sugars ldlddlddddddddlddlll, PS)” belongs 59%; to “GTTTCCATCTACTATTAA (sugars ldddldddddddldllll, PS)”, 62%.
Same read-out and setting: to “TGTTTATACCCTTTCCAA (sugars lldlddddddddddldll, PS)” belongs 57%.
Consider “TTTATCAATATCTTCTCA (sugars lldldldddddddlldll, PS)”, for which the target mRNA inhibition (Human Neuronal Cell, 7.5 µM) turned out to be 66%.
On the same count and under the same terms, to “ATTTACACTTAATTATACTT (sugars llllddlddddddldddlll, PS)” belongs 21%.
As for “TTACCTACATCTCATACT (sugars l2 d14 l2, PS)”, the target mRNA inhibition is, setting by setting: (Human Neuronal Cell, 0.2 µM) 5%; (Human Neuronal Cell, 1 µM) 14%; (Human Neuronal Cell, 5 µM) 17%; under setting [1], 77.1%.
For “ATTCAAAGCACACCACC (sugars l2 d12 l3, PS)”, the target mRNA inhibition is 25% (Human Neuronal Cell, 0.2 µM) and 32% (Human Neuronal Cell, 1 µM).
As for “CAGGCAGATAACCTCCAA (sugars l3 d12 l3, PS)”, the target mRNA inhibition was found to be 12% (Human Neuronal Cell, 0.2 µM); 20% (Human Neuronal Cell, 1 µM); 18% (Human Neuronal Cell, 5 µM).
